# Laboratory results published in PubChem BioAssay AID602267 (Broad Institute, 2012).
# Activity calls are given as the source filed them.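 How the source made its calls: active means signal falls with dose and the fitted half-maximal concentration is at or below twice the top valid tested dose; inconclusive means flat curve with 30 to 70% inhibition, or poor fit; inactive means wrong direction, flat within 30%, or potency beyond limit.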
# Molecular target: Golgi-associated PDZ and coiled-coil motif-containing protein (Homo sapiens) (UniProt Q9HD26)
# Experiment: blockers of CAL PDZ ligand groove binding – biochemical, fluorescence polarization, untagged CAL PDZ, cherry-pick, dose response (AID 602267);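 on activity change, negative = inhibition: 0% = DMSO neutral wells and -100% = excess unlabeled competitor peptide wells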
# Settings: purified CAL PDZ, TMR-peptide fluorescence polarization, 1 h
row,Compound,AC50 [µM]
1,COc1ccc(S(=O)(=O)Nc2cc(SCC(=O)O)c(O)c3ccccc23)cc1,34.2
2,CCc1ccc(S(=O)(=O)/N=C2/C=C(Sc3ncn[nH]3)C(=O)c3ccccc32)cc1,16.4

# Same assay, conditions: purified CAL PDZ, TMR-peptide fluorescence polarization, 1 h; at 16 µM (top of the series)
row,Compound,"activity change, negative = inhibition"
1,c1ccc(C2Nc3ccccc3Oc3ccccc32)cc1 (stereo unspecified),inactive
2,Oc1ccccc1N=Cc1c(O)ccc2oc3c(c12)CCCC3,inactive
3,O=c1[nH]c(CN2CC=C(c3ccccc3)CC2)nc2scc(-c3ccccc3)c12,inactive
4,COc1cccc(NC(=O)N2CCCCCC2)c1,inactive

# Same assay, conditions: purified CAL PDZ, TMR-peptide fluorescence polarization, 1 h; at 50 µM (top of the series)
row,Compound,"activity change, negative = inhibition"
1,O=C(NC1CCCCCCC1)c1cc([N+](=O)[O-])ccc1Cl,inactive
2,CCOC(=O)N1CCN(Cc2nc3c(c(=O)n(C)c(=O)n3C)n2Cc2cccc(C)c2)CC1,inactive
3,CC(c1ccccc1)N1CCN(C(=O)CCl)CC1 (stereo unspecified),inactive
4,O=c1c2cc3c(cc2[nH]c(=S)n1CCN1CCOCC1)OCO3,inactive
5,Cc1ccc(-c2nc3ccccc3c(=O)o2)cc1,inactive
6,COc1ccc2ccccc2c1CN(C)Cc1ccccc1,inactive
7,CCNC(=S)N1CCc2cc(OC)c(OC)cc2C1COc1ccc(OC)cc1 (stereo unspecified),inactive
8,Cc1nn2c3ccccc3nc2c2ccccc12,inactive
9,CC(C)CN1CCN(Cc2cccc3c2OCO3)CC1CCO (stereo unspecified),inactive
10,COc1ccc(NC(=O)c2ccc3c(c2)NC(=O)CO3)cc1OC,inactive
11,CCOC(=O)C1(CCOc2ccccc2)CCN(CC(O)CO)CC1 (stereo unspecified),inactive
12,CCC(=O)Nc1ccc(S(=O)(=O)NCc2ccco2)cc1,inactive
13,CCOc1c(Cl)cc(CNc2nnnn2C)cc1OC,inactive
14,Cc1cccc(C)c1NC(=S)NC(=O)c1ccc(Br)o1,inactive
15,CCOc1ccc(C(=O)NC2CC3CCCC(C2)N3Cc2ccccc2)cc1 (stereo unspecified),inactive
16,O=C1c2ccccc2C(O)N1c1ccccc1 (stereo unspecified),inactive
17,O=C(c1cc(Br)ccc1Cl)N1CCN(c2ccccn2)CC1,inactive
18,OCC1(CCOc2ccccc2)CCN(CCCn2cccn2)CC1,inactive
19,CC(C)OCCCNC(=O)C1CC(=O)N(CCc2ccc(F)cc2)C1 (stereo unspecified),inactive
20,O=C1CN(C(=O)CC2C(=O)NCCN2Cc2ccccc2C(F)(F)F)CCN1 (stereo unspecified),inactive
21,CSc1ccccc1NC(=O)c1ccccc1,inactive
22,CC1CCCN(C(=O)Cc2cccc3ccccc23)C1 (stereo unspecified),inactive
23,O=C1OC2(CCCCC2)OC(=O)C1=CNc1nc2ccccc2s1,inactive

row,Compound,"activity change, negative = inhibition"
1,CS(=O)(=O)N1CCN(C(=O)c2ccc3c(c2)OCCO3)CC1,inactive
2,COc1cc(C(=O)ON=C2C(C)=CC(=O)C=C2C)cc(OC)c1OC,inactive
3,CC1Cc2ccccc2N1C(=O)CNc1ccccc1N1CCCCC1 (stereo unspecified),inactive
4,CCCn1cnc2c(SCCc3ccccc3)nc(N)nc21,inactive
5,Cn1c(CNC(=O)OC(C)(C)C)n[nH]c1=S,inactive
6,CN(C)c1ccc(C(=O)OCC(=O)NC2CCCCCC2)cc1,inactive
7,CCc1nc(SCC(=O)c2ccccc2)c2c(=O)n(C)c(=O)n(C)c2n1,inactive
8,NC(=O)c1cc2ccccc2o/c1=N\NC(=O)c1ccncc1,inactive
9,O=C(O)c1cccc(Nc2ccc([N+](=O)[O-])cn2)c1,inactive
10,Cc1ccc(CN(Cc2cccnc2)C(=S)Nc2cccc(Cl)c2C)cc1,inactive
11,CCOC(=O)CCNC(=O)N1CCCC(CNS(=O)(=O)Cc2ccccc2)C1 (stereo unspecified),inactive
12,O=C(O)c1ccc(S(=O)(=O)c2ccc3c(c2)C(=O)N(c2ccccc2[N+](=O)[O-])C3=O)cc1,inactive
13,CCC(C)(C)NC(=O)CSc1nc(Cc2ccccc2)nc2ccccc12,inactive
14,O=C1C=C(c2ccccc2)C(c2ccccc2)C1 (stereo unspecified),inactive
15,COCC(=O)Nc1ccc2nc3n(c(=O)c2c1)CCCCC3,inactive
16,Cc1ccc(Cl)c2c(N=Nc3ccccc3)c(O)[nH]c12,inactive
17,COc1ccc(S(=O)(=O)N2CC(=O)Nc3ccccc32)cc1F,inactive
18,O=C(CSc1nc2c(sc3ccccc32)c(=O)n1Cc1ccccc1)NCC1CCCO1 (stereo unspecified),inactive
19,O=C(O)c1[nH]c2ccccc2c1C(c1ccccc1)c1c(C(=O)O)[nH]c2ccccc12,inactive
20,Cc1cc(SCC(=O)OCC(=O)c2c(N)n(C)c(=O)n(C)c2=O)c(C)cc1Br,inactive
21,COc1cc(S(=O)(=O)n2nc(C)cc2C)ccc1Cl,inactive
22,CCC(C(=O)NN1C(=O)c2ccccc2C1=O)c1ccccc1 (stereo unspecified),inactive
23,CCCCC(CCC(=O)Nc1nccs1)C(=O)O (stereo unspecified),inactive

row,Compound,"activity change, negative = inhibition"
1,COc1ccc(CN2CN(C3CCCC3)CSC2=S)cc1,inactive
2,O=C(NCc1cccnc1)/C(=C/c1ccc(-c2cccc(C(F)(F)F)c2)o1)NC(=O)c1ccccc1,inactive
3,O=C(OCC(=O)N1CCc2ccccc2C1)c1cccnc1Cl,inactive
4,COc1ccc(/C=N/Nc2cc(C)nc3ccc(OC)cc23)c(OC)c1,inactive
5,CCOc1ccccc1CN1CCC(n2nccc2NC(=O)C2CCCC2)CC1,inactive
6,CS(=O)(=O)c1ccc(Cl)c(NC(=O)COC(=O)c2c(Cl)cccc2Cl)c1,inactive
7,COc1ccc(Nc2cccccc2=O)cc1,inactive
8,O=C(NCC(=O)N1CCC(N2CCCCC2)CC1)C1CCCCC1,inactive
9,O=C(NCc1cccs1)c1cccn2c(=O)c3sccc3nc12,inactive
10,Cc1cc(Cl)c(Cl)cc1S(=O)(=O)NCCCn1ccnc1,inactive
11,CCOC(=O)NC(=O)COC(=O)CCCSc1nc2ccccc2s1,inactive
12,CN1CCN(c2ccccc2NC(=O)c2ccc(N3CCCC3)c([N+](=O)[O-])c2)CC1,inactive
13,CN(C)c1ccc(C=c2c3ccccc3n3c2cc(-c2ccccc2)[n+]3C)cc1,inactive
14,CC1=NN(C(N)=S)C(=O)C1N=Nc1ccc(Cl)cc1 (stereo unspecified),inactive
15,CC(=O)N1CCN(c2ccc(NC(=O)C(c3ccccc3)c3ccccc3)cc2)CC1,inactive
16,COc1ccc(CCn2c(=S)[nH]c3ccc(N4CCOCC4)cc3c2=O)cc1OC,inactive
17,O=[N+]([O-])c1ccc(N/N=C/c2cccnc2)cc1,inactive
18,COc1ccccc1C(=O)Nc1ccc2c(c1)CN(C(=O)CSC)CC2,inactive
19,CCc1noc(C)c1C(=O)N1CCCC(CCC(=O)NCc2ccc(F)c(F)c2)C1 (stereo unspecified),inactive
20,O=C(O)CC1(CC(=O)Nc2ccc(Br)cc2)CCCCC1,inactive
21,O=C(NNC(=O)c1ccc(Cl)c(Cl)c1)c1cccnc1,inactive
22,CC(C)CNC(=O)CC1Nc2ccccc2NC1=O (stereo unspecified),inactive
23,O=C(c1cccs1)N1CCN(C(=O)N2CCOCC2)CC1,inactive

row,Compound,"activity change, negative = inhibition"
1,CCC(C)NC(=O)C1CCCN(C(=O)Nc2ccc(F)cc2)C1 (stereo unspecified),inactive
2,O=C(COc1ccc(Cl)cc1Cl)Nc1nnc(C2=COCCO2)o1,inactive
3,O=C(NC12CC3CC(CC(C3)C1)C2)c1ccco1,inactive
4,Oc1ccc(C=Nc2cccc3ccccc23)c(O)c1,inactive
5,Cc1cc(C)c(OCC(=O)OC(C)C(=O)NC2CC2)c(C)c1 (stereo unspecified),inactive
6,CC(C)Oc1ccc(C(=O)Nc2ccc(S(=O)(=O)N3CCN(C)CC3)cc2)cc1,inactive
7,CC1CCCC(C)N1/N=C/c1ccc(N(C)C)cc1 (stereo unspecified),inactive
8,C/C(=N\NC(=O)c1cc(-c2ccc(C)s2)nc2ccccc12)c1cccnc1,inactive
9,O=C(O)CCCC(=O)N1N=C(c2ccccc2)CC1c1ccc2c(c1)OCO2 (stereo unspecified),inactive
10,COc1ccc(/C=N/NC(=O)c2cccc(C(F)(F)F)c2)cc1,inactive
11,O=[N+]([O-])c1ccccc1S(=O)(=O)NC1CCCCCCC1,inactive
12,CC1CCCCC1NCC(=O)NCc1ccc(F)cc1 (stereo unspecified),inactive
13,Cc1ccc(-c2nnn(CC(=O)N(CCN3CCOCC3)C(C(=O)NC(C)(C)C)c3ccc(C)o3)n2)cc1 (stereo unspecified),inactive
14,Nc1ccc(N(CCO)CCO)cc1,inactive
15,CCCNC(=O)C(=O)NCC1CCCN1CC (stereo unspecified),inactive
16,Cc1ccc(-n2c(SCC(N)=O)nnc2-c2ccco2)cc1,inactive
17,O=C(NC1(C(F)(F)F)NC(=O)N(C2CCCCC2)C1=O)C1CC1 (stereo unspecified),inactive
18,O=C(CSc1nccc(=O)[nH]1)Nc1ccc(Oc2ccccc2)cc1,inactive
19,O=C(Nc1cccc(F)c1)c1ccco1,inactive
20,CC(C)OC(=O)C1CC(C)(O)C(=O)C(C(=O)OC(C)C)C1c1ccc([N+](=O)[O-])cc1 (stereo unspecified),inactive
21,C[C@H](NC(=O)c1ccccc1Cl)C(=O)NCc1cccs1,inactive
